# Test results: ChEMBL document CHEMBL4130363, “Synthesis and pharmacological evaluation of benzamide derivatives as potent and selective sigma-1 protein ligands” (Eur J Med Chem, 2017)
# Legend:
# [1] = molecular target: Histamine H1 receptor (Homo sapiens) (UniProt P35367); test: Antagonist activity at recombinant human histamine H1 receptor assessed as inhibition of agonist-induced effect at 10 uM by aequorin reporter based assay; assay type: functional
# [2] = molecular target: Substance-P receptor (Homo sapiens) (UniProt P25103); test: Antagonist activity at recombinant human NK1R assessed as inhibition of agonist-induced effect at 10 uM by aequorin reporter based assay; assay type: functional
# Substance-P receptor (Homo sapiens), sequence (P25103 whole entry): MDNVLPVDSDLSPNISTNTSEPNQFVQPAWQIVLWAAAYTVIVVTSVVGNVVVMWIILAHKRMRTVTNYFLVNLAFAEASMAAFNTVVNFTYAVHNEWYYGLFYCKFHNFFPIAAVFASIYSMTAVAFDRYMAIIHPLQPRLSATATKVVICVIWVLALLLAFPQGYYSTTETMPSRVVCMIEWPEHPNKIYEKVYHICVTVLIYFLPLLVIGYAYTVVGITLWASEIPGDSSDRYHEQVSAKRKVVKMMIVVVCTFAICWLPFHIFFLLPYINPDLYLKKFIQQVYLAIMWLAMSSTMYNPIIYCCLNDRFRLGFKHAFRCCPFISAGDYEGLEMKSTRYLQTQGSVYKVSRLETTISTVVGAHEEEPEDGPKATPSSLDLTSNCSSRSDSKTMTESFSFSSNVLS
# [3] = molecular target: T1, 5-hydroxytryptamine receptor 3A (Homo sapiens) (UniProt P46098); test: Antagonist activity at recombinant human 5-HT3 assessed as inhibition of agonist-induced effect at 10 uM by aequorin reporter based assay
# T1 sequence (whole entry): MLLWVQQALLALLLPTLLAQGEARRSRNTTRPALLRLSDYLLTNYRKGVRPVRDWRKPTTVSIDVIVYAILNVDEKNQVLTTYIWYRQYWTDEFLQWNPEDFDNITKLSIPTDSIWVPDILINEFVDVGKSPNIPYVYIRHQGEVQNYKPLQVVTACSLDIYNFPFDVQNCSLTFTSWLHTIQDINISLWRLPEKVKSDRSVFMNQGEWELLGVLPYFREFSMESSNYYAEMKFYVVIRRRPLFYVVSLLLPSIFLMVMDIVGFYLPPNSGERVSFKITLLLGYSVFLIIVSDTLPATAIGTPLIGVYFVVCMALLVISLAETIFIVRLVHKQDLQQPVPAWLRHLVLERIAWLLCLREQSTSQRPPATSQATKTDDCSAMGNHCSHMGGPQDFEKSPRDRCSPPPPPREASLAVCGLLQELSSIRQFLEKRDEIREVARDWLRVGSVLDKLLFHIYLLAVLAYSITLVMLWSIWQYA
# [4] = molecular target: T2, Type-1 angiotensin II receptor (Homo sapiens) (UniProt P30556); test: Agonist activity at recombinant human AT1 receptor […] at 10 uM by aequorin reporter based assay relative to agonist; assay type: functional
# T2 sequence (whole entry): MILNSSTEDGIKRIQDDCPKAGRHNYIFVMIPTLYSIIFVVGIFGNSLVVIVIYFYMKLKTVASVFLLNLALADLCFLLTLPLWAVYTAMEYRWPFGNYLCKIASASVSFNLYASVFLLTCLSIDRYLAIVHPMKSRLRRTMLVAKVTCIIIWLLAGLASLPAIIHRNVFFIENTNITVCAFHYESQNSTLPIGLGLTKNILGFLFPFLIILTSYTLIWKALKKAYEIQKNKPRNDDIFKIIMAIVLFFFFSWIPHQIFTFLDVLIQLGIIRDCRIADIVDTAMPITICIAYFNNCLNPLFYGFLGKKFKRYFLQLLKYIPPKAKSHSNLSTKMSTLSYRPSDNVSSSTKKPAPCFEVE
# [5] = molecular target: T3, Cholecystokinin receptor type A (Homo sapiens) (UniProt P32238); test: Agonist activity at recombinant human […] receptor at 10 uM by aequorin reporter based assay relative to agonist; assay type: functional
# T3 sequence (whole entry): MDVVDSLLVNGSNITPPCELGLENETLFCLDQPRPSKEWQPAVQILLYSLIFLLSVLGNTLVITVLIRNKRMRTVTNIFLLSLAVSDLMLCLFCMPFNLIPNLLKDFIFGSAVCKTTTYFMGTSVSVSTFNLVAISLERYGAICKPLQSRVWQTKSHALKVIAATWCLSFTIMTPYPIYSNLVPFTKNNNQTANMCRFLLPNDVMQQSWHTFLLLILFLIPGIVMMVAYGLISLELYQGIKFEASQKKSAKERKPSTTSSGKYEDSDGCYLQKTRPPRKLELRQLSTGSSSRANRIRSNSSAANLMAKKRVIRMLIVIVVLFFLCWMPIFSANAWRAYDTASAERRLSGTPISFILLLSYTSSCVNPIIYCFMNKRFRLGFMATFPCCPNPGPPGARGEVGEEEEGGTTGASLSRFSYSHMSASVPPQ
# [6] = molecular target: 5-hydroxytryptamine receptor 1B (Homo sapiens) (UniProt P28222); test: Agonist activity at recombinant human 5-HT1B at 10 uM by GTPgamma[35S] binding-based assay relative to agonist; assay type: functional
# 5-hydroxytryptamine receptor 1B (Homo sapiens), sequence (P28222 whole entry): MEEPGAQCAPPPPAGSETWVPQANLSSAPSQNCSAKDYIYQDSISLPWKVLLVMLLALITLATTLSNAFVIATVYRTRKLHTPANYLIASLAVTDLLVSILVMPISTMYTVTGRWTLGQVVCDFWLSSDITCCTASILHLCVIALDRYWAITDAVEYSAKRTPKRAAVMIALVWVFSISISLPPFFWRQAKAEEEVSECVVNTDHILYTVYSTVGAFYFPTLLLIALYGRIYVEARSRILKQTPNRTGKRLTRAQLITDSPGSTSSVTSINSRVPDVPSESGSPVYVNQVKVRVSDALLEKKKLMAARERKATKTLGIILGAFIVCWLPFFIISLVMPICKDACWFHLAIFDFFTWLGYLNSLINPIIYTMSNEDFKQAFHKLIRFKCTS
# [7] = molecular target: T4, Alpha-1A adrenergic receptor (Homo sapiens) (UniProt P35348); test: Agonist activity at recombinant human alpha-1a adrenergic receptor […] at 10 uM by aequorin reporter based assay relative to agonist; assay type: functional
# T4 sequence (whole entry): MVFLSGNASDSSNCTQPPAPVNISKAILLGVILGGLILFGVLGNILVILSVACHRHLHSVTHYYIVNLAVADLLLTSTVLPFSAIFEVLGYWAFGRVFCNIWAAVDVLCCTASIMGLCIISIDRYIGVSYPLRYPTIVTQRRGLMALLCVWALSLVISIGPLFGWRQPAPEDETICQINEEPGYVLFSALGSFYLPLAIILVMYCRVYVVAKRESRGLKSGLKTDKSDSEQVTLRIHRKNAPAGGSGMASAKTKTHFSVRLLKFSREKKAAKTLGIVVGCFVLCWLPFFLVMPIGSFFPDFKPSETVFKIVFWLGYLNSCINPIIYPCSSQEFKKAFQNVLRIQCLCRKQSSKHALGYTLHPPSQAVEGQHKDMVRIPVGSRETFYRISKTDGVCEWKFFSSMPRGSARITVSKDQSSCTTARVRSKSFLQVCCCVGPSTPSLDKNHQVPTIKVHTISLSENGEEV
# [8] = molecular target: 5-hydroxytryptamine receptor 7 (Homo sapiens) (UniProt P34969); test: Agonist activity at recombinant human 5-HT7R assessed as induction of cAMP levels at 10 uM by HTRF assay relative to agonist; assay type: functional
# 5-hydroxytryptamine receptor 7 (Homo sapiens), sequence (P34969 whole entry): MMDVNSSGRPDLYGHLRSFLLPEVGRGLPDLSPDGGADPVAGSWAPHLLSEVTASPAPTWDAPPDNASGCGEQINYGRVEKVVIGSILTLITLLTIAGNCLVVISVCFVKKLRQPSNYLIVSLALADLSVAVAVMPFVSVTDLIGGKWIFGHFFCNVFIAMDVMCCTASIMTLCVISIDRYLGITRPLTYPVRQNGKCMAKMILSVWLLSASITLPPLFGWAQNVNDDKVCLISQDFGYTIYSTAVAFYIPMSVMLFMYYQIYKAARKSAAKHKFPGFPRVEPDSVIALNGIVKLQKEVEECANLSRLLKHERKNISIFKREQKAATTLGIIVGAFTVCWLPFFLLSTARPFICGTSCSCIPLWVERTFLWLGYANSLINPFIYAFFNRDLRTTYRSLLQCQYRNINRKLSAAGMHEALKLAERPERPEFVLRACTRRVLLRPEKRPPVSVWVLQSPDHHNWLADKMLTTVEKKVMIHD
# [9] = molecular target: T5, Muscarinic acetylcholine receptor M2 (Homo sapiens) (UniProt P08172); test: Antagonist activity at human muscarinic M2 receptor assessed as inhibition of agonist-induced effect at 10 uM by GTPgamma[35S] binding-based assay; assay type: functional
# T5 sequence (whole entry): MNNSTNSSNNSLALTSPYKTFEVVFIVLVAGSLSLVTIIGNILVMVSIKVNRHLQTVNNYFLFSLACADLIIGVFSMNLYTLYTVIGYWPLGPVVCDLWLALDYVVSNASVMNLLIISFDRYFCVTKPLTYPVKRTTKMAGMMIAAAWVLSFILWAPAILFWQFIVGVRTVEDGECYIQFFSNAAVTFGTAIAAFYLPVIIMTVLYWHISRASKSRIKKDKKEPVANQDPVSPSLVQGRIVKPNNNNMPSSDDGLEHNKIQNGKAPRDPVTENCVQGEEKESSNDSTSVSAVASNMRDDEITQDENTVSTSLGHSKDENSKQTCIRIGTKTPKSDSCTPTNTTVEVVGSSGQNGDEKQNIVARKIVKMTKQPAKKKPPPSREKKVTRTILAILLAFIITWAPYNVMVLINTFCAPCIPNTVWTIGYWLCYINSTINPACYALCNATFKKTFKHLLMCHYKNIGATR
# [10] = molecular target: Beta-2 adrenergic receptor (Homo sapiens) (UniProt P07550); test: Agonist activity at recombinant human beta-2 adrenergic receptor assessed as induction of cAMP levels at 10 uM by HTRF assay relative to agonist; assay type: functional
# Beta-2 adrenergic receptor (Homo sapiens), sequence (P07550 whole entry, looked up): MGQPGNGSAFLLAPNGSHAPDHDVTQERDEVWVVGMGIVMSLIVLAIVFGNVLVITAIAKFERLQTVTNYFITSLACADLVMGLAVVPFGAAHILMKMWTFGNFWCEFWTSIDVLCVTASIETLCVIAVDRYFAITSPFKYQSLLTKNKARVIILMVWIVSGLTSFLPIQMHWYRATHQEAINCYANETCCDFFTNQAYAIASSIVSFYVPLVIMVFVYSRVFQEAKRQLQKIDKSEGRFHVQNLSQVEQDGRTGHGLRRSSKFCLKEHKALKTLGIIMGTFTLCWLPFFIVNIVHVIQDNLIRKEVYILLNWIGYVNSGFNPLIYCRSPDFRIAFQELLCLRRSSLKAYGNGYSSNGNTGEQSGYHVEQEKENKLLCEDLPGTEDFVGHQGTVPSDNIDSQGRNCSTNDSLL
# [11] = molecular target: 5-hydroxytryptamine receptor 2B (Homo sapiens) (UniProt P41595); test: Agonist activity at recombinant human 5-HT2B at 10 uM by aequorin reporter based assay relative to agonist; assay type: functional
# 5-hydroxytryptamine receptor 2B (Homo sapiens), sequence (P41595 whole entry): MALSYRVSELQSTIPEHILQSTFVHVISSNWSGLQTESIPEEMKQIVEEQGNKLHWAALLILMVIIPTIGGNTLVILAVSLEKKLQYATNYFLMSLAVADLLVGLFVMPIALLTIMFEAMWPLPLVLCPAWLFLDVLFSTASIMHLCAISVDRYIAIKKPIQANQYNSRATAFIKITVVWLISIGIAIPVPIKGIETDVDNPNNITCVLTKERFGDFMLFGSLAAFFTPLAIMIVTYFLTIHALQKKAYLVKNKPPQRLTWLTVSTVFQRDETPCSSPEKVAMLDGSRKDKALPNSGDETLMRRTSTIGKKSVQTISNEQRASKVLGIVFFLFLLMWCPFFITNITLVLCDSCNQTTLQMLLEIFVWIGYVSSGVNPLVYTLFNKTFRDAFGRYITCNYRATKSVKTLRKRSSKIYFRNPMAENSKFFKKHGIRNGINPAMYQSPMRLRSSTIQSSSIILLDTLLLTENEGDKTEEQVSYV
# Histamine H1 receptor (Homo sapiens), sequence (P35367 whole entry): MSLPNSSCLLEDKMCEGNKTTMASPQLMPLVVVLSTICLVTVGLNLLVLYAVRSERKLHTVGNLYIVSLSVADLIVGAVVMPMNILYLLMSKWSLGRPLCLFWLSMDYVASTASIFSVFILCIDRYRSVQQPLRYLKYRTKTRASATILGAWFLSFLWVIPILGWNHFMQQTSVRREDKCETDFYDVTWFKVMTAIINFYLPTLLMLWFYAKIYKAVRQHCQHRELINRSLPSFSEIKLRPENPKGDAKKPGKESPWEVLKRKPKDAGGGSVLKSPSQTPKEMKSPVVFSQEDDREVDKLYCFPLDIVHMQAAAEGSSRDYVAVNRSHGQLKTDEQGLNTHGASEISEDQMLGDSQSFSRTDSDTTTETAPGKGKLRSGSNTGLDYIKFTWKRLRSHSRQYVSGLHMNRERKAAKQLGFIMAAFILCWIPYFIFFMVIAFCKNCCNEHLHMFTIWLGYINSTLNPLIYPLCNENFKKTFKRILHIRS
compound,measurement,setting,value
CN(CCCNC(=O)c1cccc(Br)c1)Cc1ccccc1,inhibition,[1],74%
same,inhibition,[2],58%
same,inhibition,[3],83%
same,Activity,[4],0%
same,Activity,[5],0%
same,Activity,[6],1%
same,Activity,[7],0%
same,Activity,[8],21%
same,inhibition,[9],30%
same,Activity,[10],1%
same,Activity,[11],-2%
CN(CCCNC(=O)c1ccc(Br)cc1)Cc1ccccc1,inhibition,[1],28%
same,inhibition,[2],4%
same,inhibition,[3],79%
same,Activity,[4],1%
same,Activity,[5],-1%
same,Activity,[6],10%
same,Activity,[7],1%
same,Activity,[8],9%
same,inhibition,[9],28%
same,Activity,[10],2%
same,Activity,[11],2%
COc1cccc(C(=O)NCCCN(C)Cc2ccccc2)c1,inhibition,[1],57%
same,inhibition,[2],10%
same,inhibition,[3],28%
same,Activity,[4],0%
same,Activity,[5],-2%
same,Activity,[6],-12%
same,Activity,[7],0%
same,Activity,[8],-5%
same,inhibition,[9],26%
same,Activity,[10],8%
same,Activity,[11],-2%
CN(CCNC(=O)c1ccc(Cl)cc1)Cc1ccccc1,inhibition,[1],32%
same,inhibition,[2],22%
same,inhibition,[3],51%
same,Activity,[4],0%
same,Activity,[5],-2%
same,Activity,[6],4%
same,Activity,[7],0%
same,Activity,[8],46%
same,inhibition,[9],28%
same,Activity,[10],0%
same,Activity,[11],0%
CCCc1ccc(C(=O)NCCCN(C)Cc2ccccc2)cc1,inhibition,[1],25%
same,inhibition,[2],34%
same,inhibition,[3],90%
same,Activity,[4],0%
same,Activity,[5],-1%
same,Activity,[6],55%
same,Activity,[7],0%
same,Activity,[8],25%
same,inhibition,[9],36%
same,Activity,[10],6%
same,Activity,[11],-3%
CN(CCCNC(=O)c1ccc(C(F)(F)F)cc1)Cc1ccccc1,inhibition,[1],24%
same,inhibition,[2],33%
same,inhibition,[3],75%
same,Activity,[4],0%
same,Activity,[5],-2%
same,Activity,[6],-1%
same,Activity,[7],0%
same,Activity,[8],33%
same,inhibition,[9],20%
same,Activity,[10],1%
same,Activity,[11],-2%
CN(CCCNC(=O)c1ccc([N+](=O)[O-])cc1)Cc1ccccc1,inhibition,[1],21%
same,inhibition,[2],21%
same,inhibition,[3],23%
same,Activity,[4],0%
same,Activity,[5],-1%
same,Activity,[6],7%
same,Activity,[7],0%
same,Activity,[8],33%
same,inhibition,[9],15%
same,Activity,[10],-2%
same,Activity,[11],-2%
CN(CCCNC(=O)c1ccc(Cl)cc1)CCc1ccccc1,inhibition,[1],90%
same,inhibition,[2],41%
same,inhibition,[3],62%
same,Activity,[4],0%
same,Activity,[5],-2%
same,Activity,[6],1%
same,Activity,[7],0%
same,Activity,[8],130%
same,inhibition,[9],54%
same,Activity,[10],2%
same,Activity,[11],38%
CN(CCNC(=O)c1ccc(C#N)cc1)Cc1ccccc1,inhibition,[1],35%
same,inhibition,[2],14%
same,inhibition,[3],75%
same,Activity,[4],0%
same,Activity,[5],-2%
same,Activity,[6],-12%
same,Activity,[7],0%
same,Activity,[8],2%
same,inhibition,[9],26%
same,Activity,[10],0%
same,Activity,[11],-4%
COc1ccc(C(=O)NCCCN(C)Cc2ccccc2)cc1,inhibition,[1],12%
same,inhibition,[2],4%
same,inhibition,[3],19%
same,Activity,[4],0%
same,Activity,[5],-1%
same,Activity,[6],7%
same,Activity,[7],0%
same,Activity,[8],-1%
same,inhibition,[9],29%
same,Activity,[10],8%
same,Activity,[11],2%
CN(CCCNC(=O)c1ccc(Cl)cc1)Cc1ccccc1,inhibition,[1],34%
same,inhibition,[2],3%
same,inhibition,[3],42%
same,Activity,[4],0%
same,Activity,[5],-1%
same,Activity,[6],7%
same,Activity,[7],0%
same,Activity,[8],19%
same,inhibition,[9],38%
same,Activity,[10],1%
same,Activity,[11],1%
CN(CCNC(=O)c1ccc([N+](=O)[O-])cc1)Cc1ccccc1,inhibition,[1],26%
same,inhibition,[2],18%
same,inhibition,[3],30%
same,Activity,[4],0%
same,Activity,[5],-2%
same,Activity,[6],-10%
same,Activity,[7],0%
same,Activity,[8],26%
same,inhibition,[9],29%
same,Activity,[10],3%
same,Activity,[11],-1%
